Assays:
[1] = target: T1, PPARG/RXRA LBD heterodimer (Homo sapiens, UniProt P37231); experiment: PPARγ-NCOR1 recruitment assay (TR-FRET); type: biochemical; settings: for Emax: 3 h, maximal extent, T0070907 defined as 100%, DMSO 0%, read-out: % NCOR recruitment relative to T907; for EC50: TR-FRET, NCOR1 ID2 peptide, 80 nM Rosiglitazone, 3 hours, read-out: PPARG-NCOR recruitment assay EC50
T1 construct: 2 nM WT PPARG LBD (E. coli expressed, His-TEV-Q203-Y477); fused on or other part: N-terminal His tag with TEV site on the PPARG LBD
Description: Compound potency (EC50) and maximal extent of NCOR1 recruitment to PPARG were assessed a TR-FRET binding assay measuring association of a biotinylated NCOR1 ID2 peptide (Biotin-[…]-amide) to PPARG/RXRA LBD heterodimer.
T1 sequence (O75376 2251-2273 limits assumed, one chain of several, further chain): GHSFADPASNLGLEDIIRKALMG

[2] = target: T2, PPARG/RXRA LBD heterodimer (Homo sapiens, UniProt P37231); experiment: PPARγ-MED1 blockade assay (TR-FRET); type: biochemical; settings: for EC50: TR-FRET, MED1 LxxLL peptide, 80 nM Rosiglitazone, 3 hours; for Emax: maximal extent, GW9662 defined as 100%, DMSO 0%, read-out: % MED1 blockade relative to GW9662
T2 construct: His-TEV-Q203-Y477; Uniprot ID P37231-2; made in house; host or cells: E. coli
T2 sequence (P37231 203-477 isoform P37231-2): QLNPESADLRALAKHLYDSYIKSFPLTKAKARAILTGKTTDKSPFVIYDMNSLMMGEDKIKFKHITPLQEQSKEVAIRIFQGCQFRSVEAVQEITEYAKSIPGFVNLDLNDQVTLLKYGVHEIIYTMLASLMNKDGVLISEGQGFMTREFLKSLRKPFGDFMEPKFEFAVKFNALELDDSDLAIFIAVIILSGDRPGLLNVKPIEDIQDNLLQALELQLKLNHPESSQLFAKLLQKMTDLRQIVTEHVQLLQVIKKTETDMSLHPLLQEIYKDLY
T2 sequence (P19793 228-462 partner limits assumed): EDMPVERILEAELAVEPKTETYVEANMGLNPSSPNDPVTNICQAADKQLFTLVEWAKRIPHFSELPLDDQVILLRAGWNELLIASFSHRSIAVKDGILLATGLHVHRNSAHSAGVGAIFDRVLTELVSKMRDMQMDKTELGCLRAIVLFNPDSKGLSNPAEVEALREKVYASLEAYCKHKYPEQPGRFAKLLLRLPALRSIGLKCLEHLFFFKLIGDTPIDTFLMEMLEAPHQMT
Description: Compound potency (IC50) and maximal extent of MED1 repulsion to PPARG were assessed a TR-FRET binding assay measuring association of a biotinylated MED1 LxxLL peptide (Biotin-[…]-amide) to PPARG/RXRA LBD heterodimer.

[3] = test system: ANGPTL4, a PPARG target gene, in HT1197 (RXRA S427F mutation) cells; experiment: Bladder cancer pharmacodynamic assay, HT1197 cell assay (qPCR of PPARG target gene ANGPTL4); type: cell-based; settings: Homo sapiens; for inhibition at 0.1 µM: read-out: % inhibition of ANGPTL4 @ 100 nM, 100 nM compound, 24 hours, relative to DMSO control
Description: Quantitative PCR was performed using an ABI QuantStudio 7 Flex Reaction system. Data were analyzed and reported relative to DMSO control using the comparative Ct method (ΔΔCt).

For `COc1cnc(C#N)cc1-c1cc(=O)c2c(F)cc(F)cc2[nH]1` [Example 9, 4-(5,7-difluoro-4-oxo-1,4-dihydroquinolin-2-yl)-5-methoxypicolinonitrile], the Emax [1] was less than 100%, the EC50 [1] was 100 to 1000 nM and the EC50 [2] was 100 to 1000 nM. It also gave an Emax [2] greater than 100% and an inhibition at 0.1 µM [3] of 22%.

Work on `CN(C)CCOc1cnc(C#N)cc1-c1cc(=O)c2c(F)cc(F)cc2[nH]1` [Example 11, 4-(5,7-difluoro-4-oxo-1,4-dihydroquinolin-2-yl)-5-(2-(dimethylamino)-ethoxy)-picolinonitrile] yielded an Emax [1] greater than 100%, an EC50 [1] of 1000 to 10000 nM and an EC50 [2] of 1000 to 10000 nM. It also gave an Emax [2] greater than 100% and an inhibition at 0.1 µM [3] of 58%.

For `N#Cc1cnc(Cl)c(-c2cc(=O)c3c(F)cc(F)cc3[nH]2)c1` [Example 27, 6-chloro-5-(5,7-difluoro-4-oxo-1,4-dihydroquinolin-2-yl)nicotinonitrile], the Emax [1] was greater than 100%, the EC50 [1] was 10 to 100 nM and the EC50 [2] was 10 to 100 nM. For the same compound, the Emax [2] was greater than 100% and the inhibition at 0.1 µM [3] was 70%.

With `CN1CCC(c2c(F)cc3[nH]c(-c4nc(C#N)ccc4Cl)cc(=O)c3c2F)CC1` [Example 16, 5-chloro-6-(5,7-difluoro-6-(1-methylpiperidin-4-yl)-4-oxo-1,4-dihydroquinolin-2-yl)picolinonitrile] the Emax [1] was greater than 100%, the EC50 [1] was 10 to 100 nM and the EC50 [2] was 10 to 100 nM. It also gave an Emax [2] greater than 100% and an inhibition at 0.1 µM [3] of 85%.

`N#Cc1cc(-c2cc(=O)c3c(F)c(N4CCS(=O)(=O)CC4)c(F)cc3[nH]2)c(Cl)cn1` [Example 18, 5-chloro-4-(6-(1,1-dioxidothiomorpholino)-5,7-difluoro-4-oxo-1,4-dihydroquinolin-2-yl)picolinonitrile] showed an Emax [1] greater than 100%, an EC50 [1] of 10 to 100 nM and an EC50 [2] of 10 to 100 nM. It also gave an Emax [2] greater than 100% and an inhibition at 0.1 µM [3] of 57%.

With `CN(C)C(=O)N1CCN(c2c(F)cc3[nH]c(-c4cc(C#N)ncc4Cl)cc(=O)c3c2F)CC1` [Example 21, 4-(2-(5-chloro-2-cyanopyridin-4-yl)-5,7-difluoro-4-oxo-1,4-dihydroquinolin-6-yl)-N,N-dimethylpiperazine-1-carboxamide] the Emax [1] was greater than 100%, the EC50 [1] was less than 10 nM and the EC50 [2] was less than 10 nM. It also gave an Emax [2] greater than 100% and an inhibition at 0.1 µM [3] of 81%.

Compound `CN(C)C(=O)[C@@H]1CCN(c2c(F)cc3[nH]c(-c4cc(C#N)ncc4Cl)cc(=O)c3c2F)C1` [Example 25, (R)-1-(2-(5-chloro-2-cyanopyridin-4-yl)-5,7-difluoro-4-oxo-1,4-dihydroquinolin-6-yl)-N,N-dimethylpyrrolidine-3-carboxamide] has an Emax [1] greater than 100%, an EC50 [1] of less than 10 nM and an EC50 [2] of less than 10 nM. It also gave an Emax [2] greater than 100% and an inhibition at 0.1 µM [3] of 86%.

`CS(=O)(=O)c1cnc(C#N)cc1-c1cc(=O)c2c(F)cc(Cl)cc2[nH]1` [Example 31, 4-(7-chloro-5-fluoro-4-oxo-1,4-dihydroquinolin-2-yl)-5-(methylsulfonyl)picolinonitrile] showed an Emax [1] greater than 100%, an EC50 [1] of less than 10 nM and an EC50 [2] of less than 10 nM. For the same compound, the Emax [2] was greater than 100% and the inhibition at 0.1 µM [3] was 86%.

`N#Cc1ccc(Cl)c(-c2cc(=O)c3c(F)c(N4CCS(=O)(=O)CC4)c(F)cc3[nH]2)n1` [Example 17, 5-chloro-6-(6-(1,1-dioxidothiomorpholino)-5,7-difluoro-4-oxo-1,4-dihydroquinolin-2-yl)picolinonitrile] was tested, and the Emax [1] was greater than 100%, the EC50 [1] was 10 to 100 nM and the EC50 [2] was 10 to 100 nM. The Emax [2] was greater than 100% and the inhibition at 0.1 µM [3] was 78%.

`CN1CCN(c2c(F)cc3[nH]c(-c4cc(C#N)ncc4Cl)cc(=O)c3c2F)CC1` [Example 15, 5-chloro-4-(5,7-difluoro-6-(4-methylpiperazin-1-yl)-4-oxo-1,4-dihydroquinolin-2-yl)picolinonitrile] showed an Emax [1] greater than 100%, an EC50 [1] of 10 to 100 nM and an EC50 [2] of 10 to 100 nM. It also gave an Emax [2] greater than 100%, an EC50 ([3]; 24 hours treatment, qPCR) of 3.1 nM and an inhibition at 0.1 µM [3] of 81%.

For `CN1CCN(c2cc3c(=O)cc(-c4cc(C#N)ncc4Cl)[nH]c3cc2Cl)CC1` [Example 14, 5-chloro-4-(7-chloro-6-(4-methylpiperazin-1-yl)-4-oxo-1,4-dihydroquinolin-2-yl)picolinonitrile], the Emax [1] was greater than 100%, the EC50 [1] was 10 to 100 nM and the EC50 [2] was 10 to 100 nM. The Emax [2] was greater than 100% and the inhibition at 0.1 µM [3] was 88%.

Compound `CS(=O)(=O)c1ccc(C#N)nc1-c1cc(=O)c2c(F)cc(F)cc2[nH]1` [Example 32, 6-(5,7-difluoro-4-oxo-1,4-dihydroquinolin-2-yl)-5-(methylsulfonyl)picolinonitrile] has an Emax [1] greater than 100%, an EC50 [1] of less than 10 nM and an EC50 [2] of less than 10 nM. The Emax [2] was greater than 100% and the inhibition at 0.1 µM [3] was 87%.

Reference: patent US20250122169A1, “PPARG INVERSE AGONISTS AND USES THEREOF” (Flare Therapeutics Inc., priority 2021, published 2025)
